US10035800B2 (AbbVie Inc., priority 2013, dated 2018)

Assays:
BRD4 (BDI_K57-E168) = molecular target: T1, BRD4 (BDI_K57-E168) (Homo sapiens, UniProt O60885); assay: TR-FRET bromodomain binding assay, first bromodomain of BRD4; conditions: 100 nM probe
T1 construct: BD1: amino acids K57-E168; made in house
Summary of the method: (§1)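 Probe displacement by TR-FRET: 8 nM His-BRD4 bromodomain, 1 nM Eu-anti-His, Alexa647 BET-inhibitor probe at 100 nM (BDI) or 30 nM (BDII); 20 mM Na phosphate pH 6.0, 2% DMSO; 1 h RT. Ex 340, Em 495/520. IC50 from 4PL fit; Ki from IC50, probe Kd and probe concentration.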

BRD4 (BDII_E352-M457) = molecular target: T2, BRD4 (BDII_E352-M457) (Homo sapiens, UniProt O60885); assay: TR-FRET bromodomain binding assay, second bromodomain of BRD4; conditions: 30 nM probe
T2 construct: protocol; made in house
Summary of the method: as §1

[1] = system: breast cancer cell line MX-1; assay: MX-1 cell line proliferation assay; type: cell-based; conditions: MX-1 cells, 3-day proliferation assay, Cell Titer Glo; read-out: Cellular proliferation: EC50
Experimental: MX-1 Cell Line Proliferation Assay
The impact of compounds of the Examples on cancer cell proliferation was determined using the breast cancer cell line MX-1 (ATCC) in a 3-day proliferation assay and the data are reported in Table 1. MX-1 cells were maintained in RPMI 1640 medium (Sigma) supplemented with 10% FBS at 37 C.° and an atmosphere of 5% CO2. For compound testing, MX-1 cells were plated in 96-well black bottom plates at a density of 5000 cells/well in 90 μL of culture media and incubated at 37° overnight to allow cell adhesion and spreading. Compound dilution series were prepared in DMSO via a 3-fold serial dilution from 3 mM to 0.1 μM. The DMSO dilution series were then diluted 1:100 in phosphate buffered saline, and 10 μL of the resulted solution were added to the appropriate wells of the MX-1 cell plate. The final compound concentrations in the wells were 3, 1, 0.3, 0.1, 0.03, 0.01, 0.003, 0.001, 0.0003, and 0.0001 μM or 1, 0.3, 0.1, 0.03, 0.01, 0.003, 0.001, 0.0003, 0.0001, and 0.00003 μM.
Luminescence readings from the Cell Titer Glo assay were normalized to the DMSO treated cells and analyzed using the GraphPad Prism software with sigmoidal curve fitting to obtain EC50s. The minimum significant ratio (MSR) was determined to evaluate assay reproducibility (Eastwood et al., (2006) J Biomol Screen, 11: 253-261). The overall MSR was determined to be 2.1 and a moving MSR (last six run MSR overtime) has been <2.

[2] = TR-FRET assay protocol E (compound 9.19 μM-150 pM)
[3] = TR-FRET assay protocol G (compound 0.92 μM-15 pM)

SMILES	Ki (BRD4 (BDI_K57-E168); [2]) [nM]	Ki (BRD4 (BDII_E352-M457); [2]) [nM]	EC50 [1] [nM]	Ki (BRD4 (BDI_K57-E168); [3]) [nM]	Ki (BRD4 (BDII_E352-M457); [3]) [nM]
Cn1cc2c3c(c[nH]c3c1=O)CN(CC1CCN(C(=O)OC(C)(C)C)CC1)c1ccc(CS(C)(=O)=O)cc1-2 [Example 28]	1.1	1.17	13.7	–	–
Cn1cc2c3c(c[nH]c3c1=O)CN(c1ccc(F)cc1)c1ncc(F)cc1-2 [Example 32, 7-fluoro-4-(4-fluorophenyl)-10-methyl-3,4-dihydro-1H-1,4,5,10-tetraazadibenzo[cd,f]azulen-11(10H)-one]	–	–	1.38	1.01	1.14
Cc1cnc2c(c1)-c1cn(C)c(=O)c3[nH]cc(c13)C(c1ccccc1)N2c1ccc(F)cc1 (stereo not drawn) [Example 33, 4-(4-fluorophenyl)-7,10-dimethyl-3-phenyl-3,4-dihydro-1H-1,4,5,10-tetraazadibenzo[cd,f]azulen-11(10H)-one]	–	–	495	38.3	22.8
Cn1cc2c3c(c[nH]c3c1=O)CN(CC1CCNC1)c1ccc(CS(C)(=O)=O)cc1-2 (stereo not drawn) [Example 36]	–	–	> 1000	5.05	6.25
COC1CCN(C(=O)C2c3c[nH]c4c(=O)n(C)cc(c34)-c3cc(CS(C)(=O)=O)ccc3N2c2ccc(F)cc2)CC1 (stereo not drawn) [Example 40]	–	–	398	29.4	136
CN1CCN(C(=O)C2c3c[nH]c4c(=O)n(C)cc(c34)-c3cc(CS(C)(=O)=O)ccc3N2c2ccc(F)cc2)CC1 (stereo not drawn) [Example 41, 4-(4-fluorophenyl)-10-methyl-3-(4-methylpiperazine-1-carbonyl)-7-((methylsulfonyl)methyl)-3,4-dihydro-1H-1,4,10-triazadibenzo[cd,f]azulen-11(10H)-one]	–	–	> 1000	49.5	57.8
Cn1cc2c3c(c[nH]c3c1=O)CN(C(=O)NC1CCCC1)c1ccc(CS(C)(=O)=O)cc1-2 [Example 44, N-cyclopentyl-10-methyl-7-((methylsulfonyl)methyl)-11-oxo-10,11-dihydro-1H-1,4,10-triazadibenzo[cd,f]azulene-4(3H)-carboxamide]	–	–	48.7	2.61	2.47
CCNC(=O)N1Cc2c[nH]c3c(=O)n(C)cc(c23)-c2cc(CS(C)(=O)=O)ccc21 [Example 45, N-ethyl-10-methyl-7-((methylsulfonyl)methyl)-11-oxo-10,11-dihydro-1H-1,4,10-triazadibenzo[cd,f]azulene-4(3H)-carboxamide]	–	–	141	3.92	3.75
Cn1cc2c3c(c[nH]c3c1=O)CN(C(=O)Nc1ccc(F)cc1)c1ccc(CS(C)(=O)=O)cc1-2 [Example 46]	–	–	152	13.7	7.48
CCCCN1Cc2c[nH]c3c(=O)n(C)cc(c23)-c2cc(F)cc(F)c21 [Example 47, 4-butyl-5,7-difluoro-10-methyl-3,4-dihydro-1H-1,4,10-triazadibenzo[cd,f]azulen-11(10H)-one]	–	–	8.33	1.37	1.27
CCCN1Cc2c[nH]c3c(=O)n(C)cc(c23)-c2cc(F)cc(F)c21 [Example 48, 5,7-difluoro-10-methyl-4-propyl-3,4-dihydro-1H-1,4,10-triazadibenzo[cd,f]azulen-11(10H)-one]	–	–	4.41	1.12	0.855
Cn1cc2c3c(c[nH]c3c1=O)CN(CC1CC1)c1c(F)cc(F)cc1-2 [Example 49, 4-(cyclopropylmethyl)-5,7-difluoro-10-methyl-3,4-dihydro-1H-1,4,10-triazadibenzo[cd,f]azulen-11(10H)-one]	–	–	8.63	1.99	2.21
COC(=O)CCCN1Cc2c[nH]c3c(=O)n(C)cc(c23)-c2cc(F)cc(F)c21 [Example 50, methyl 4-(5,7-difluoro-10-methyl-11-oxo-10,11-dihydro-1H-1,4,10-triazadibenzo[cd,f]azulen-4(3H)-yl)butanoate]	–	–	42.2	3.44	5.51
Cn1cc2c3c(c[nH]c3c1=O)CN(CCCc1ccccc1)c1c(F)cc(F)cc1-2 [Example 51, 5,7-difluoro-10-methyl-4-(3-phenylpropyl)-3,4-dihydro-1H-1,4,10-triazadibenzo[cd,f]azulen-11(10H)-one]	–	–	174	4.43	13.2
Cc1ccccc1NC(=O)N1Cc2c[nH]c3c(=O)n(C)cc(c23)-c2cc(CS(C)(=O)=O)ccc21 [Example 52, 10-methyl-7-((methylsulfonyl)methyl)-11-oxo-N-(o-tolyl)-10,11-dihydro-1H-1,4,10-triazadibenzo[cd,f]azulene-4(3H)-carboxamide]	–	–	247	17.4	4.99
Cn1cc2c3c(c[nH]c3c1=O)CN(CCc1ccccc1)c1c(F)cc(F)cc1-2 [Example 55, 5,7-difluoro-10-methyl-4-phenethyl-3,4-dihydro-1H-1,4,10-triazadibenzo[cd,f]azulen-11(10H)-one]	–	–	146	8.96	15.9
Cn1cc2c3c(c[nH]c3c1=O)CN(CCc1ccc3c(c1)OCO3)c1c(F)cc(F)cc1-2 [Example 56, 4-(2-(benzo[d][1,3]dioxol-5-yl)ethyl)-5,7-difluoro-10-methyl-3,4-dihydro-1H-1,4,10-triazadibenzo[cd,f]azulen-11(10H)-one]	–	–	197	14.4	35.3
Cc1cccc(C)c1NC(=O)N1Cc2c[nH]c3c(=O)n(C)cc(c23)-c2cc(CS(C)(=O)=O)ccc21 [Example 61, N-(2,6-dimethylphenyl)-10-methyl-7-((methylsulfonyl)methyl)-11-oxo-10,11-dihydro-1H-1,4,10-triazadibenzo[cd,f]azulene-4(3H)-carboxamide]	–	–	> 1000	21.1	3.74
COc1ccc(NC(=O)N2Cc3c[nH]c4c(=O)n(C)cc(c34)-c3cc(CS(C)(=O)=O)ccc32)cc1 [Example 62, N-(4-methoxyphenyl)-10-methyl-7-((methylsulfonyl)methyl)-11-oxo-10,11-dihydro-1H-1,4,10-triazadibenzo[cd,f]azulene-4(3H)-carboxamide]	–	–	910	7.23	4.73
CCCNC(=O)N1Cc2c[nH]c3c(=O)n(C)cc(c23)-c2cc(CS(C)(=O)=O)ccc21 [Example 64, 10-methyl-7-((methylsulfonyl)methyl)-11-oxo-N-propyl-10,11-dihydro-1H-1,4,10-triazadibenzo[cd,f]azulene-4(3H)-carboxamide]	–	–	84.6	2.69	2.85
Cn1cc2c3c(c[nH]c3c1=O)CN(C(=O)Nc1ccc(F)cc1F)c1ccc(CS(C)(=O)=O)cc1-2 [Example 68, N-(2,4-difluorophenyl)-10-methyl-7-((methylsulfonyl)methyl)-11-oxo-10,11-dihydro-1H-1,4,10-triazadibenzo[cd,f]azulene-4(3H)-carboxamide]	–	–	40.1	12.7	4.22
CC(C)c1ccc(NC(=O)N2Cc3c[nH]c4c(=O)n(C)cc(c34)-c3cc(CS(C)(=O)=O)ccc32)cc1 [Example 69, N-(4-isopropylphenyl)-10-methyl-7-((methylsulfonyl)methyl)-11-oxo-10,11-dihydro-1H-1,4,10-triazadibenzo[cd,f]azulene-4(3H)-carboxamide]	–	–	43.1	3.25	3.24
Cn1cc2c3c(c[nH]c3c1=O)CN(C(=O)Nc1c(F)cccc1F)c1ccc(CS(C)(=O)=O)cc1-2 [Example 70, N-(2,6-difluorophenyl)-10-methyl-7-((methylsulfonyl)methyl)-11-oxo-10,11-dihydro-1H-1,4,10-triazadibenzo[cd,f]azulene-4(3H)-carboxamide]	–	–	131	7.41	1.88
COC(=O)CCC1c2c[nH]c3c(=O)n(C)cc(c23)-c2cc(CS(C)(=O)=O)ccc2N1c1ccc(F)cc1F (stereo not drawn) [Example 82, methyl 3-(4-(2,4-difluorophenyl)-10-methyl-7-((methylsulfonyl)methyl)-11-oxo-3,4,10,11-tetrahydro-1H-1,4,10-triazadibenzo[cd,f]azulen-3-yl)propanoate]	–	–	979	13.3	1.12
